Reference: PubChem BioAssay (NCI)
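Results reflect a 48-hour exposure of cells in 96-well plates to compound at five concentrations. GI50 is the concentration that inhibits growth by half. TGI: total growth inhibition.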

Assays:
Test in all cases: growth of human tumour cells (NCI), 48 h
[1] = test system: HCT-15 colon
[2] = test system: SR leukemia
[3] = test system: SK-OV-3 ovarian
[4] = test system: SNB-75 CNS
[5] = test system: SF-295 CNS
[6] = test system: K-562 leukemia
[7] = test system: UACC-257 melanoma
[8] = test system: MDA-MB-468 breast
[9] = test system: TK-10 renal
[10] = test system: COLO 205 colon
[11] = test system: SW-620 colon
[12] = test system: T-47D breast
[13] = test system: SNB-19 CNS
[14] = test system: OVCAR-4 ovarian
[15] = test system: UACC-62 melanoma
[16] = test system: KM12 colon
[17] = test system: 786-0 renal
[18] = test system: MDA-MB-231 breast
[19] = test system: HCC-2998 colon
[20] = test system: NCI-H226 lung
[21] = test system: ACHN renal
[22] = test system: DU-145 prostate
[23] = test system: MOLT-4 leukemia
[24] = test system: SF-268 CNS
[25] = test system: RXF 393 renal
[26] = test system: LOX IMVI melanoma
[27] = test system: HOP-92 NSCLC
[28] = test system: SN12C renal
[29] = test system: BT-549 breast
[30] = test system: HOP-62 NSCLC
[31] = test system: OVCAR-3 ovarian
[32] = test system: SK-MEL-2 melanoma
[33] = test system: NCI/ADR-RES ovarian
[34] = test system: A498 renal
[35] = test system: A549 NSCLC
[36] = test system: MCF7 breast
[37] = test system: PC-3 prostate
[38] = test system: OVCAR-8 ovarian
[39] = test system: EKVX NSCLC
[40] = test system: SF-539 CNS
[41] = test system: HCT-116 colon
[42] = test system: CCRF-CEM leukemia
[43] = test system: SK-MEL-5 melanoma
[44] = test system: NCI-H460 lung
[45] = test system: UO-31 renal
[46] = test system: HT29 colon
[47] = test system: SK-MEL-28 melanoma
[48] = test system: CAKI-1 renal
[49] = test system: HS 578T breast
[50] = test system: HL-60(TB) leukemia
[51] = test system: IGROV1 ovarian
[52] = test system: MALME-3M melanoma
[53] = test system: RPMI-8226 leukemia
[54] = test system: OVCAR-5 ovarian
[55] = test system: NCI-H522 lung
[56] = test system: MDA-MB-435
[57] = test system: M14 melanoma
[58] = test system: U251 CNS
[59] = test system: NCI-H23 lung

CNS(=O)(=O)N1CCc2c(Br)c3c(c(OC)c2C1CCc1ccccc1)OCO3 (stereo not drawn)
GI50 [1]: 23.1 µM | TGI [1]: > 100 µM | GI50 [2]: 24 µM | TGI [2]: > 100 µM | GI50 [3]: 20.9 µM | TGI [3]: 73.6 µM | GI50 [4]: 4.24 µM | TGI [4]: 34.5 µM | GI50 [5]: 11.1 µM | TGI [5]: 31.8 µM | GI50 [6]: 17.3 µM | TGI [6]: > 100 µM | GI50 [7]: 20.9 µM | TGI [7]: 51.5 µM | GI50 [8]: 9.95 µM | TGI [8]: 35.5 µM | GI50 [9]: 34.4 µM | TGI [9]: > 100 µM | GI50 [10]: 14.9 µM | TGI [10]: 30.7 µM | GI50 [11]: 21.8 µM | TGI [11]: > 100 µM | GI50 [12]: 9.48 µM | TGI [12]: 67.4 µM | GI50 [13]: 23.8 µM | TGI [13]: > 100 µM | GI50 [14]: 14.7 µM | TGI [14]: 85 µM | GI50 [15]: 6.4 µM | TGI [15]: 21.4 µM | GI50 [16]: 19.4 µM | TGI [16]: 78.1 µM | GI50 [17]: 19.6 µM | TGI [17]: 62.5 µM | GI50 [18]: 7.33 µM | TGI [18]: 22.3 µM | GI50 [19]: 18.4 µM | TGI [19]: 75.7 µM | GI50 [20]: 10.8 µM | TGI [20]: 25.8 µM | GI50 [21]: 20.3 µM | TGI [21]: 92.2 µM | GI50 [22]: 29.2 µM | TGI [22]: > 100 µM | GI50 [23]: 10.4 µM | TGI [23]: > 100 µM | GI50 [24]: 16.8 µM | TGI [24]: > 100 µM | GI50 [25]: 13.5 µM | TGI [25]: 31.4 µM | GI50 [26]: 10.1 µM | TGI [26]: 23.5 µM | GI50 [27]: 11.4 µM | TGI [27]: 33.4 µM | GI50 [28]: 11.6 µM | TGI [28]: 24.7 µM | GI50 [29]: 15.4 µM | TGI [29]: 30 µM | GI50 [30]: 13.5 µM | TGI [30]: 37.5 µM | GI50 [31]: 13.7 µM | TGI [31]: 29.9 µM | GI50 [32]: 14.5 µM | TGI [32]: 30.7 µM | GI50 [33]: 14 µM | TGI [33]: 86.9 µM | GI50 [34]: 15.7 µM | TGI [34]: 34.6 µM | GI50 [35]: 14.7 µM | TGI [35]: > 100 µM | GI50 [36]: 16.6 µM | TGI [36]: 90.7 µM | GI50 [37]: 5.67 µM | TGI [37]: > 100 µM | GI50 [38]: 24.6 µM | TGI [38]: > 100 µM | GI50 [39]: 14.1 µM | TGI [39]: > 100 µM | GI50 [40]: 15.2 µM | TGI [40]: 30.1 µM | GI50 [41]: 6.64 µM | TGI [41]: 26.3 µM | GI50 [42]: 24.3 µM | TGI [42]: > 100 µM | GI50 [43]: 15.4 µM | TGI [43]: 28.8 µM | GI50 [44]: 13.7 µM | TGI [44]: 30.1 µM | GI50 [45]: 10.2 µM | TGI [45]: 69.1 µM | GI50 [46]: 18.7 µM | TGI [46]: > 100 µM | GI50 [47]: 15.7 µM | TGI [47]: 31.1 µM | GI50 [48]: 7.25 µM | TGI [48]: > 100 µM | GI50 [49]: 12.7 µM | TGI [49]: 42 µM | GI50 [50]: 22.9 µM | TGI [50]: 61.9 µM | GI50 [51]: 14.1 µM | TGI [51]: 81.6 µM | GI50 [52]: 17.8 µM | TGI [52]: 34.8 µM | GI50 [53]: 12.4 µM | TGI [53]: > 100 µM | GI50 [54]: 14.1 µM | TGI [54]: 33.8 µM | GI50 [55]: 13 µM | TGI [55]: 38.7 µM | GI50 [56]: 12.5 µM | TGI [56]: 31.3 µM | GI50 [57]: 12.2 µM | TGI [57]: 34 µM | GI50 [58]: 15.6 µM | TGI [58]: 35.6 µM | GI50 [59]: 17 µM | TGI [59]: 72.4 µM
